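48-hour exposure; five concentrations; linearly interpolated endpoints. TGI is the concentration that stops growth completely.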
system: 786-0 renal; experiment: DTP human tumour cell line panel, 48 h

SMILES | TGI
N=C(N)C1CN(CCc2c[nH]c3ccccc23)C(=O)NC1=O (configuration not stated) | > 100 µM
O=[N+]([O-])c1ccc(CN(CCCl)OCCCl)cc1 | > 100 µM
CC1=NN(c2nc(N)nc(/C(C#N)=C\c3ccc([N+](=O)[O-])s3)n2)C(C)(C)C1 | 0.289 µM
O=c1[nH]cnc2c1cnn2Cc1cn(CCCCO)nn1 | > 100 µM
CN1CCc2c([nH]c3ccccc23)C1 | > 100 µM
Cn1c(=O)c2c(ncn2CCNC(CO)C(O)c2ccc([N+](=O)[O-])cc2)n(C)c1=O (configuration not stated) | > 100 µM
CCCNC(=O)NNC(=O)c1c[nH]c2nc(C)ccc2c1=O | > 100 µM
O=C(Nc1ccccc1)c1cc(S(=O)(=O)NC2=NC(c3ccccc3)c3cc(Cl)ccc3N2)c(SSc2cc(Cl)c(C(=O)Nc3ccccc3)cc2S(=O)(=O)NC2=NC(c3ccccc3)c3cc(Cl)ccc3N2)cc1Cl (configuration not stated) | > 100 µM
COc1ccc(C2SC(N)=Nc3c2c(C)nn3C(=O)c2ccncc2)cc1OC (configuration not stated) | > 10 µM
CC1CC(OP(=O)(OCc2ccccc2)OCc2ccccc2)[C@@H](OCc2ccccc2)C(OCc2ccccc2)C1OCc1ccccc1 (some centres not stated) | > 100 µM
CCO/C(O)=C(/C(=N)N1CCOCC1)C(=O)Nc1ccc(F)cc1 | > 100 µM
C[C@H]1[C@H]2[C@H]3CC[C@@H]4[C@@]5(C)CC[C@H](O)C(C)(C)[C@@H]5CC[C@@]4(C)[C@]3(C)C[C@H](O)[C@@]2(C)C[C@H]2O[C@]21C | 45.1 µM
O=C(O)CCCc1nc2c(n1Cc1ccccc1)C(=O)c1ccccc1C2=O | > 100 µM
CCOC(=O)NC(Nc1ccc(C)cc1)(C(F)(F)F)C(F)(F)F | > 100 µM
CCOC(=O)CCC(NC(=O)Cc1ccc(Nc2nc3cc(F)c(F)cc3nc2C(=O)OCC)cc1)C(=O)OCC (configuration not stated) | > 100 µM
[N-]=[N+]=Nc1c([N+](=O)[O-])c(=O)n(-c2ccccc2)c2ccccc12 | 43.4 µM

system: SK-MEL-2 melanoma; experiment: DTP human tumour cell line panel, 48 h

SMILES | TGI
Cc1ccc(S(=O)(=O)c2[nH]cc(/C(=C\C3CCCCC3)[N+](=O)[O-])c2C2CCCCC2)cc1 | 1.82 µM
Nc1ccc2c(c1)C(=O)N1CCC[C@H]1C(=O)N2 | > 100 µM
Cc1ccc2c(c1)C(=S)N1CSCC1c1nncn1-2 (configuration not stated) | > 100 µM
COc1cccc(C2c3cc4c(cc3OC(N3CCCCC3)C2C)OCO4)c1O (configuration not stated) | 42.5 µM
N#Cc1n[nH]n(-c2ccc(Br)cc2)c1=O | > 100 µM
O=C1c2ccccc2C(=O)c2c(NCC(O)CO)ccc(NCC(O)CO)c21 (configuration not stated) | 94.8 µM
COc1cccc(C(=O)Oc2ccc(OS(=O)(=O)c3ccc(C)cc3)cc2)c1C#N | > 100 µM
CC1=C(C)CC2C(=O)N(c3cc(C(C)(C)C)ccc3C(C)(C)C)C(=O)C2C1 (configuration not stated) | > 100 µM
O=[N+]([O-])c1ccc(CN(CCCl)OCCCl)cc1 | > 100 µM
CC1=NN(c2nc(N)nc(/C(C#N)=C\c3ccc([N+](=O)[O-])s3)n2)C(C)(C)C1 | 1.66 µM
O=c1[nH]cnc2c1cnn2Cc1cn(CCCCO)nn1 | > 100 µM
CN1CCc2c([nH]c3ccccc23)C1 | > 100 µM
Cn1c(=O)c2c(ncn2CCNC(CO)C(O)c2ccc([N+](=O)[O-])cc2)n(C)c1=O (configuration not stated) | > 100 µM
CCCNC(=O)NNC(=O)c1c[nH]c2nc(C)ccc2c1=O | > 100 µM
O=C(Nc1ccccc1)c1cc(S(=O)(=O)NC2=NC(c3ccccc3)c3cc(Cl)ccc3N2)c(SSc2cc(Cl)c(C(=O)Nc3ccccc3)cc2S(=O)(=O)NC2=NC(c3ccccc3)c3cc(Cl)ccc3N2)cc1Cl (configuration not stated) | > 100 µM
COc1ccc(C2SC(N)=Nc3c2c(C)nn3C(=O)c2ccncc2)cc1OC (configuration not stated) | > 10 µM
CC1CC(OP(=O)(OCc2ccccc2)OCc2ccccc2)[C@@H](OCc2ccccc2)C(OCc2ccccc2)C1OCc1ccccc1 (some centres not stated) | > 100 µM
CCO/C(O)=C(/C(=N)N1CCOCC1)C(=O)Nc1ccc(F)cc1 | > 100 µM
C[C@H]1[C@H]2[C@H]3CC[C@@H]4[C@@]5(C)CC[C@H](O)C(C)(C)[C@@H]5CC[C@@]4(C)[C@]3(C)C[C@H](O)[C@@]2(C)C[C@H]2O[C@]21C | 41.2 µM
O=C(O)CCCc1nc2c(n1Cc1ccccc1)C(=O)c1ccccc1C2=O | 52.9 µM
CCOC(=O)CCC(NC(=O)Cc1ccc(Nc2nc3cc(F)c(F)cc3nc2C(=O)OCC)cc1)C(=O)OCC (configuration not stated) | 60.4 µM
[N-]=[N+]=Nc1c([N+](=O)[O-])c(=O)n(-c2ccccc2)c2ccccc12 | 52.5 µM

system: SF-539 CNS; experiment: DTP human tumour cell line panel, 48 h

SMILES | TGI
Cc1ccc(S(=O)(=O)c2[nH]cc(/C(=C\C3CCCCC3)[N+](=O)[O-])c2C2CCCCC2)cc1 | 2.46 µM
Nc1ccc2c(c1)C(=O)N1CCC[C@H]1C(=O)N2 | > 100 µM
CC1(C)C(C#N)C1C1=C(N2CCOCC2)[C@]2(C)C(OC(=O)c3ccccc3)CC[C@@H]2C1 (some centres not stated) | > 100 µM
COc1cccc(C2c3cc4c(cc3OC(N3CCCCC3)C2C)OCO4)c1O (configuration not stated) | 5.82 µM
N#Cc1n[nH]n(-c2ccc(Br)cc2)c1=O | > 100 µM
O=C1c2ccccc2C(=O)c2c(NCC(O)CO)ccc(NCC(O)CO)c21 (configuration not stated) | > 100 µM
COc1cccc(C(=O)Oc2ccc(OS(=O)(=O)c3ccc(C)cc3)cc2)c1C#N | > 100 µM
CC1=C(C)CC2C(=O)N(c3cc(C(C)(C)C)ccc3C(C)(C)C)C(=O)C2C1 (configuration not stated) | > 100 µM
O=[N+]([O-])c1ccc(CN(CCCl)OCCCl)cc1 | > 100 µM
CC1=NN(c2nc(N)nc(/C(C#N)=C\c3ccc([N+](=O)[O-])s3)n2)C(C)(C)C1 | 0.467 µM
O=c1[nH]cnc2c1cnn2Cc1cn(CCCCO)nn1 | > 100 µM
Cn1c(=O)c2c(ncn2CCNC(CO)C(O)c2ccc([N+](=O)[O-])cc2)n(C)c1=O (configuration not stated) | > 100 µM
O=C(Nc1ccccc1)c1cc(S(=O)(=O)NC2=NC(c3ccccc3)c3cc(Cl)ccc3N2)c(SSc2cc(Cl)c(C(=O)Nc3ccccc3)cc2S(=O)(=O)NC2=NC(c3ccccc3)c3cc(Cl)ccc3N2)cc1Cl (configuration not stated) | > 100 µM
COc1ccc(C2SC(N)=Nc3c2c(C)nn3C(=O)c2ccncc2)cc1OC (configuration not stated) | > 10 µM
CC1CC(OP(=O)(OCc2ccccc2)OCc2ccccc2)[C@@H](OCc2ccccc2)C(OCc2ccccc2)C1OCc1ccccc1 (some centres not stated) | > 100 µM
C[C@H]1[C@H]2[C@H]3CC[C@@H]4[C@@]5(C)CC[C@H](O)C(C)(C)[C@@H]5CC[C@@]4(C)[C@]3(C)C[C@H](O)[C@@]2(C)C[C@H]2O[C@]21C | 39 µM
O=C(O)CCCc1nc2c(n1Cc1ccccc1)C(=O)c1ccccc1C2=O | > 100 µM
CCOC(=O)NC(Nc1ccc(C)cc1)(C(F)(F)F)C(F)(F)F | > 100 µM
CCOC(=O)CCC(NC(=O)Cc1ccc(Nc2nc3cc(F)c(F)cc3nc2C(=O)OCC)cc1)C(=O)OCC (configuration not stated) | > 100 µM

Reference: PubChem BioAssay (NCI)
